Experimental data from ChEMBL document CHEMBL4308865, “Discovery of 4-alkoxy-6-methylpicolinamide negative allosteric modulators of metabotropic glutamate receptor subtype 5” (Bioorg Med Chem Lett, 2019).

Legend:
[1] = molecular target: T1, Metabotropic glutamate receptor 5 (Homo sapiens, UniProt P41594); test: Negative allosteric modulation of human mGlu5 receptor assessed as inhibition of glutamate induced-calcium mobilization; assay type: functional
Target sequence in this assay (P41594 whole entry): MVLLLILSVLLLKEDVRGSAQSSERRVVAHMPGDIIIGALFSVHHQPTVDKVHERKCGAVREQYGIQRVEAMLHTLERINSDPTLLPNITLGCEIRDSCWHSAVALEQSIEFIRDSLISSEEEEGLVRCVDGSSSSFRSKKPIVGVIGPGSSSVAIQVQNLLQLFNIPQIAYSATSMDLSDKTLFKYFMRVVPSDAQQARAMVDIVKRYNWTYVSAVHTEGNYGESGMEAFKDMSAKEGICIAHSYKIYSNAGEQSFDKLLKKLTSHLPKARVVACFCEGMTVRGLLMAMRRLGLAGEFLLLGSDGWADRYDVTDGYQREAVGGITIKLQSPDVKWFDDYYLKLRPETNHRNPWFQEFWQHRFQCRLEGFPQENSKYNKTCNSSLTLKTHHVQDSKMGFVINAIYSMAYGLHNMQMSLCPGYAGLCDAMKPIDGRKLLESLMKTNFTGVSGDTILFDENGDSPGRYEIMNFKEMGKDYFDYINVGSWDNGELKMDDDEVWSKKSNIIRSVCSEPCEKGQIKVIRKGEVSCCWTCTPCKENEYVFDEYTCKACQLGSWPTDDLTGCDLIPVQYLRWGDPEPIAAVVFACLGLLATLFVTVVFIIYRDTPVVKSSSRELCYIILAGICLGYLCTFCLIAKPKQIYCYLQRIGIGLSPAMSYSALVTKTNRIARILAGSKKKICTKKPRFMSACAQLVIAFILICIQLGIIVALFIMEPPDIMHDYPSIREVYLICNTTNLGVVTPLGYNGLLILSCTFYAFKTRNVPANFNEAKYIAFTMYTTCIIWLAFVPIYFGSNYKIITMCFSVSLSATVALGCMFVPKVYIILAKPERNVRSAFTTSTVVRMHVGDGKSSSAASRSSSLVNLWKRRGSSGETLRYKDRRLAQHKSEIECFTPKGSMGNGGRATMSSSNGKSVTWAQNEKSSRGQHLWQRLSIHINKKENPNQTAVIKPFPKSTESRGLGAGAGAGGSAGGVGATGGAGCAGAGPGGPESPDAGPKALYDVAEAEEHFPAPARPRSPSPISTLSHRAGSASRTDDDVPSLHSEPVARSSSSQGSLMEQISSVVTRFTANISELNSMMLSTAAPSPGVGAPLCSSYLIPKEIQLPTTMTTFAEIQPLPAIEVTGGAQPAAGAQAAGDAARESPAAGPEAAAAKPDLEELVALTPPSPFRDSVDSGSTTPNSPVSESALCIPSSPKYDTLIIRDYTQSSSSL

[2] = molecular target: T1, Metabotropic glutamate receptor 5; test: Negative allosteric modulation of human mGlu5 receptor assessed as inhibition of glutamate induced-calcium mobilization relative to glutamate; assay type: functional
Target sequence in this assay (P41594 21-1212 limits assumed): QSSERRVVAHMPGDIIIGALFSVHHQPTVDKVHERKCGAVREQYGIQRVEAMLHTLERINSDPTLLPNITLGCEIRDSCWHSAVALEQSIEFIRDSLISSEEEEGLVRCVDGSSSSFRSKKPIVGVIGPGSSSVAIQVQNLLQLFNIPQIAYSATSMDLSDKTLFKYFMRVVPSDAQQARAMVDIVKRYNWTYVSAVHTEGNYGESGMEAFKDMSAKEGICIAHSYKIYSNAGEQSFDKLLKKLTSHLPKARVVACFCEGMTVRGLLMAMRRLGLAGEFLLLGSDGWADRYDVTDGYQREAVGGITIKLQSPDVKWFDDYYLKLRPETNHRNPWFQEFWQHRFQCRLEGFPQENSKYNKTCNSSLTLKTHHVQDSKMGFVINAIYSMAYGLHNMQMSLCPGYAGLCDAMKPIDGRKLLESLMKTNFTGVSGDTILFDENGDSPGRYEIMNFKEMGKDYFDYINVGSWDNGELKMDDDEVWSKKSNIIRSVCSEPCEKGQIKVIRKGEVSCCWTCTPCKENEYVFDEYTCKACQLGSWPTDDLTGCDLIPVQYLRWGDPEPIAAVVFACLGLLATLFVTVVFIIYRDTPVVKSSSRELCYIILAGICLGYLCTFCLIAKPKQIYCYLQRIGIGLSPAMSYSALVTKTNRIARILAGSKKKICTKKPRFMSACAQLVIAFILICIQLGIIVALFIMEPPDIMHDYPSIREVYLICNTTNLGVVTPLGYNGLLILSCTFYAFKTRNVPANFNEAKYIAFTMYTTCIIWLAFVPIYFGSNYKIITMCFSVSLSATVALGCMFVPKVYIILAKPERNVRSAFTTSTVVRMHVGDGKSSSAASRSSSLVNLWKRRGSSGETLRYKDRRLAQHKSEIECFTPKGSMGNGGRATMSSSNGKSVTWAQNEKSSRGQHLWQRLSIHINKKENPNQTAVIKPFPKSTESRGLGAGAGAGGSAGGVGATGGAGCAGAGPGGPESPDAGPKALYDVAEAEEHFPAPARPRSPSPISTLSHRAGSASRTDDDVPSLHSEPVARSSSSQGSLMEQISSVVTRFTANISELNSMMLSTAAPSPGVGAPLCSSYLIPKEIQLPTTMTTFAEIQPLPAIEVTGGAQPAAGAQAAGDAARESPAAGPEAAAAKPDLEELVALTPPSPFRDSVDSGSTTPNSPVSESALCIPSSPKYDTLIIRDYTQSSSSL

[3] = Unbound fraction in human plasma; assay type: ADME, cell-free
[4] = Brain to plasma partition coefficient, Kp in rat; assay type: ADME, organism-based
[5] = Unbound fraction in rat plasma; assay type: ADME, cell-free
Cytochrome P450 2D6 = Cytochrome P450 2D6 (Homo sapiens, UniProt P10635); test: Inhibition of CYP2D6 (unknown origin); assay type: ADME
Cytochrome P450 2D6, sequence (P10635 whole entry): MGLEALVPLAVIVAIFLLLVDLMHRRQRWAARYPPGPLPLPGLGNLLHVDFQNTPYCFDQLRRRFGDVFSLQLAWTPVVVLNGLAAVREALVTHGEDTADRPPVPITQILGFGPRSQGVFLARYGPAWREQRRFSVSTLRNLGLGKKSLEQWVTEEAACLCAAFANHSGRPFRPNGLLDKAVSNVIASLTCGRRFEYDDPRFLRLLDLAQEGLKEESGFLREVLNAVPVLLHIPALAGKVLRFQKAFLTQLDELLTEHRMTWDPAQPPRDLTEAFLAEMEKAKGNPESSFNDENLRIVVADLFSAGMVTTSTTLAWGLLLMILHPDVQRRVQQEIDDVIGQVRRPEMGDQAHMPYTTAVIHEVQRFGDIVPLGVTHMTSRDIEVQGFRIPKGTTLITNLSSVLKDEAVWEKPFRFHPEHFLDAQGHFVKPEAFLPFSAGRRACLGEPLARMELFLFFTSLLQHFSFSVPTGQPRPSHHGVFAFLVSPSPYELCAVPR

Cytochrome P450 3A4 = Cytochrome P450 3A4 (Homo sapiens, UniProt P08684); test: Inhibition of CYP3A4 (unknown origin); assay type: ADME
Cytochrome P450 3A4, sequence (P08684 whole entry): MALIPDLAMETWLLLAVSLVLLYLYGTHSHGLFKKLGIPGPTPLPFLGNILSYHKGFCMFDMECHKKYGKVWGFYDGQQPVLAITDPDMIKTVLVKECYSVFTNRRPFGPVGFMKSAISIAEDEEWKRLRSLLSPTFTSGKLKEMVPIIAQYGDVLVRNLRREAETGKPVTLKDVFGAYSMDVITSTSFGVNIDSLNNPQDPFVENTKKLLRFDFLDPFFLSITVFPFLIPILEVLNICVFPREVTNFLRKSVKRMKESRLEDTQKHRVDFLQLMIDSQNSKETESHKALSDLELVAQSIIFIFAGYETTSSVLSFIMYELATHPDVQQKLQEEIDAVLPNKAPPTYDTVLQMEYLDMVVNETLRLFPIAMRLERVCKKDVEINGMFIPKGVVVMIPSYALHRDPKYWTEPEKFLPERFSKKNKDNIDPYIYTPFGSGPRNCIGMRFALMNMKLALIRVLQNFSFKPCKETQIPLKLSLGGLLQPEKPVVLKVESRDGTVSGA

Cytochrome P450 2C9 = Cytochrome P450 2C9 (Homo sapiens, UniProt P11712); test: Inhibition of CYP2C9 (unknown origin); assay type: ADME
Cytochrome P450 2C9, sequence (P11712 whole entry): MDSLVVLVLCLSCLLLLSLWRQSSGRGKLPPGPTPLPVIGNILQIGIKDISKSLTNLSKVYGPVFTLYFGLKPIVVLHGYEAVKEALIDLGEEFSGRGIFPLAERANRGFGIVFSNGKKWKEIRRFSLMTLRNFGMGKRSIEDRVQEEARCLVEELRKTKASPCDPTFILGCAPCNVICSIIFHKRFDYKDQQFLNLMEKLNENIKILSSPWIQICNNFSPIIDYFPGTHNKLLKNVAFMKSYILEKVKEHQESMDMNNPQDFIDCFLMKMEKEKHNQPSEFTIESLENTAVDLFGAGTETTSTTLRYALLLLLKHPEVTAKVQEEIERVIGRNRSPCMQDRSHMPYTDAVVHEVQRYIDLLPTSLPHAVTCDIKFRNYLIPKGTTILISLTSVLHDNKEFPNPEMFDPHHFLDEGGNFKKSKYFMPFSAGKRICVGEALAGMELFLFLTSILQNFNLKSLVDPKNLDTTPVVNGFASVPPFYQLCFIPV

[6] = Volume of distribution at steady state in rat at 0.2 mg/kg, iv; assay type: ADME, organism-based; details: in vivo, read-out: Vdss
Cytochrome P450 1A2 = molecular target: T2, Cytochrome P450 1A2 (Homo sapiens, UniProt P05177); test: Inhibition of CYP1A2 (unknown origin); assay type: ADME
T2 sequence (P05177 whole entry): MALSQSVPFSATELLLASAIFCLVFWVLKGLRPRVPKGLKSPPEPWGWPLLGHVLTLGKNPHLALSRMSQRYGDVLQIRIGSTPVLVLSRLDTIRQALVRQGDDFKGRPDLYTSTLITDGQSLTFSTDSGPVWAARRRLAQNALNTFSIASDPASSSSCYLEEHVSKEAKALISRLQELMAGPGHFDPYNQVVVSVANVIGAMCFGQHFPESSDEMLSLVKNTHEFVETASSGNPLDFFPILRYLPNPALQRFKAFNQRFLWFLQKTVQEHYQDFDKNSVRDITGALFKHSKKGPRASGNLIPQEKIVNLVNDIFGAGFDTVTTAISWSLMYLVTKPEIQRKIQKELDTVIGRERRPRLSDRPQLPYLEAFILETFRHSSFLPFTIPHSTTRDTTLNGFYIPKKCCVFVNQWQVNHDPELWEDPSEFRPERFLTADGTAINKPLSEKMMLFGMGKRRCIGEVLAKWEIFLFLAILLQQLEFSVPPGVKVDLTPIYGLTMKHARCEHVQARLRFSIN

[7] = Plasma clearance in rat at 0.2 mg/kg, iv; assay type: ADME, organism-based
[8] = Half life in rat at 0.2 mg/kg, iv; assay type: ADME, organism-based; details: in vivo
[9] = Drug metabolism in rat S9 fraction assessed as NADPH-dependent oxidation of furanyl moiety; assay type: ADME, subcellular
[10] = Drug metabolism in human S9 fraction assessed as NADPH-dependent oxidation of furanyl moiety; assay type: ADME, subcellular
[11] = Drug metabolism in dog S9 fraction assessed as NADPH-dependent oxidation of furanyl moiety; assay type: ADME, subcellular, Canis lupus familiaris

| SMILES | IC50 [1] [nM] | Efficacy [2] [%] | other results |
| --- | --- | --- | --- |
| Cc1cc(OC2CCC2)cc(C(=O)Nc2ccccn2)n1 | 43 | 1.5 | – |
| Cc1cc(OCC2CCO2)cc(C(=O)Nc2ccc(F)cn2)n1 (stereo unspecified) | 2480 | -1.1 | – |
| Cc1cc(OC2CSC2)cc(C(=O)Nc2nc(C)cs2)n1 | 31 | – | – |
| Cc1cc(OCC2COC2)cc(C(=O)Nc2nc(C)cs2)n1 | 134 | 1.5 | – |
| Cc1cc(OCC2CCOC2)cc(C(=O)Nc2ccc(F)cn2)n1 (stereo unspecified) | 700 | 1 | – |
| COCOc1cc(C)nc(C(=O)Nc2ccc(F)cn2)c1 | 694 | 0.1 | – |
| Cc1cc(OC2COC2)cc(C(=O)Nc2nc(C)cs2)n1 | 51 | 0.5 | – |
| Cc1cc(O[C@H]2CO[C@H](C)C2)cc(C(=O)Nc2nc(C)cs2)n1 | 81 | 1.2 | fraction unbound [3]: 0.05; Kp [4]: 2.2; fraction unbound [5]: 0.1 |
| Cc1cc(O[C@H]2CCOC2)cc(C(=O)Nc2nc(C)cs2)n1 | 107 | 1.4 | – |
| Cc1cc(OC2CCOCC2)cc(C(=O)Nc2ccccn2)n1 | 1560 | 0.9 | – |
| Cc1cc(OC2CCCC2)cc(C(=O)Nc2ccccn2)n1 | 182 | 2.1 | – |
| Cc1cc(OC2C[S+]([O-])C2)cc(C(=O)Nc2nc(C)cs2)n1 (stereo unspecified) | 145 | – | – |
| Cc1cc(O[C@@H]2CO[C@@H](C)C2)cc(C(=O)Nc2ccc(F)cn2)n1 | 2040 | 2.6 | – |
| Cc1cc(OCC2CCCO2)cc(C(=O)Nc2ccc(F)cn2)n1 (stereo unspecified) | 2330 | -0.9 | – |
| Cc1cc(OC2COC2)cc(C(=O)Nc2ccc(F)cn2)n1 | 228 | 1.1 | INH (Cytochrome P450 2D6): > 30 µM; Fu [3]: 0.16; INH (Cytochrome P450 3A4): > 30 µM; INH (Cytochrome P450 2C9): > 30 µM; Vd [6]: 4.5 L/kg; INH (Cytochrome P450 1A2): 5.8 µM; clearance [7]: 179 mL/min/kg; half-life [8]: 28 min; Fu [5]: 0.16 |
| Cc1cc(O[C@H]2CO[C@H](C)C2)cc(C(=O)Nc2nc(C(F)F)cs2)n1 | 902 | 1.6 | – |
| Cc1cc(OC2CCCC2)cc(C(=O)Nc2ccc(F)cn2)n1 | 3660 | -0.7 | – |
| Cc1cc(O[C@@H]2CCOC2)cc(C(=O)Nc2ccc(F)cn2)n1 | 38 | 1.7 | INH (Cytochrome P450 2D6): > 30 µM; Fu [3]: 0.07; INH (Cytochrome P450 3A4): > 30 µM; INH (Cytochrome P450 2C9): > 30 µM; Vd [6]: 5.5 L/kg; INH (Cytochrome P450 1A2): > 30 µM; clearance [7]: 136 mL/min/kg; half-life [8]: 46 min; Fu [5]: 0.26 |
| COCOc1cc(C)nc(C(=O)Nc2nc(C)cs2)c1 | 103 | 1.9 | – |
| Cc1cc(OCC2CCOC2)cc(C(=O)Nc2ccccn2)n1 (stereo unspecified) | 210 | 1.1 | – |
| Cc1cc(O[C@H]2CCOC2)cc(C(=O)Nc2ccc(F)cn2)n1 | 657 | 1 | – |

| SMILES | IC50 [1] [nM] | Efficacy [2] [%] | other results |
| --- | --- | --- | --- |
| Cc1cc(O[C@H]2CO[C@H](C)C2)cc(C(=O)Nc2nc(CF)cs2)n1 | 180 | 1.1 | – |
| Cc1cc(OC2COC2)cc(C(=O)Nc2ccccn2)n1 | 66 | 1.3 | – |
| COc1cc(C)nc(C(=O)Nc2ccc(F)cn2)c1 | 7200 | 5.5 | – |
| Cc1cc(OC2CCC2)cc(C(=O)Nc2nc(C)cs2)n1 | 58 | 1.5 | – |
| CC(=O)N1CC(Oc2cc(C)nc(C(=O)Nc3nc(C)cs3)c2)C1 | 388 | – | – |
| Cc1cc(O[C@@H]2CCOC2)cc(C(=O)Nc2nc(C)cs2)n1 | 28 | 1.3 | Drug metabolism [9]: Metabolite_Detected; INH (Cytochrome P450 2D6): > 30 µM; Fu [3]: 0.08; INH (Cytochrome P450 3A4): 30 µM; INH (Cytochrome P450 2C9): > 30 µM; Vd [6]: 2.7 L/kg; INH (Cytochrome P450 1A2): 0.3 µM; clearance [7]: 34 mL/min/kg; half-life [8]: 63 min; Drug metabolism [10]: Metabolite_Detected; fraction unbound [5]: 0.11; Drug metabolism [11]: Metabolite_Detected |
| Cc1cc(OC2CCSC2)cc(C(=O)Nc2nc(C)cs2)n1 (stereo unspecified) | 77 | – | – |
| Cc1cc(O[C@H]2CO[C@@H](C)C2)cc(C(=O)Nc2nc(C)cs2)n1 | 684 | 1.1 | – |
| Cc1cc(OCC2CCO2)cc(C(=O)Nc2nc(C)cs2)n1 (stereo unspecified) | 399 | 1.2 | – |
| Cc1cc(OCC2CCCO2)cc(C(=O)Nc2ccccn2)n1 (stereo unspecified) | 725 | 0.8 | – |
| Cc1cc(OCC2CCOC2)cc(C(=O)Nc2nc(C)cs2)n1 (stereo unspecified) | 200 | 1.1 | – |
| Cc1cc(O[C@H]2CO[C@H](C)C2)cc(C(=O)Nc2nc(C(F)(F)F)cs2)n1 | 5200 | 2.7 | – |
| Cc1cc(OC2CCC2)cc(C(=O)Nc2ccc(F)cn2)n1 | 182 | 1.6 | – |
| Cc1cc(OC2CCCCC2)cc(C(=O)Nc2nc(C)cs2)n1 | 2100 | 1.9 | – |
| Cc1cc(OCC2CCCO2)cc(C(=O)Nc2nc(C)cs2)n1 (stereo unspecified) | 273 | 1.5 | – |
| COC[C@H](C)Oc1cc(C)nc(C(=O)Nc2nc(C)cs2)c1 | 932 | – | – |
| Cc1cc(OC2CCCCC2)cc(C(=O)Nc2ccc(F)cn2)n1 | 3350 | 10.4 | – |
| Cc1cc(OCC2COC2)cc(C(=O)Nc2ccccn2)n1 | 392 | 0.8 | – |
| Cc1cc(O[C@@H]2CO[C@@H](C)C2)cc(C(=O)Nc2nc(C)cs2)n1 | 395 | 1.7 | – |
| Cc1cc(OC2CCCC2)cc(C(=O)Nc2nc(C)cs2)n1 | 149 | 1.5 | – |
| Cc1cc(O[C@H]2CO[C@@H](C)C2)cc(C(=O)Nc2ccc(F)cn2)n1 | 4470 | 1.9 | – |

| SMILES | IC50 [1] [nM] | Efficacy [2] [%] | other results |
| --- | --- | --- | --- |
| Cc1cc(OC2CCCOC2)cc(C(=O)Nc2ccccn2)n1 (stereo unspecified) | 224 | 0.7 | – |
| Cc1cc(OC2CCOCC2)cc(C(=O)Nc2nc(C)cs2)n1 | 446 | 0.7 | – |
| Cc1cc(O[C@H]2CO[C@H](C)C2)cc(C(=O)Nc2ccc(F)cn2)n1 | 175 | 1.3 | – |
| Cc1cc(O[C@H]2CCOC2)cc(C(=O)Nc2ccccn2)n1 | 194 | 1.3 | – |
| COC[C@@H](C)Oc1cc(C)nc(C(=O)Nc2nc(C)cs2)c1 | 1030 | – | – |
| Cc1cc(O[C@H]2CO[C@H](C)C2)cc(C(=O)Nc2nc(C)c(F)s2)n1 | 1290 | 3.8 | – |
| Cc1cc(OC2CCOCC2)cc(C(=O)Nc2ccc(F)cn2)n1 | 1960 | -0.2 | – |
| CO[C@@H](C)COc1cc(C)nc(C(=O)Nc2nc(C)cs2)c1 | 1050 | – | – |
| Cc1cc(O[C@@H]2CCOC2)cc(C(=O)Nc2ccccn2)n1 | 23 | 1.7 | – |
| Cc1cc(O[C@H]2CO[C@H](C)C2)cc(C(=O)Nc2nc(C3CC3)cs2)n1 | 899 | 1.3 | – |
| Cc1cc(OC2CCCOC2)cc(C(=O)Nc2ccc(F)cn2)n1 (stereo unspecified) | 497 | 0.2 | – |
| Cc1cc(OC2CCCCC2)cc(C(=O)Nc2ccccn2)n1 | 1420 | 2.1 | – |
| Cc1cc(OC2CCCOC2)cc(C(=O)Nc2nc(C)cs2)n1 (stereo unspecified) | 140 | 0.9 | – |
| COCOc1cc(C)nc(C(=O)Nc2ccccn2)c1 | 120 | 1.1 | – |
| Cc1cc(OCC2COC2)cc(C(=O)Nc2ccc(F)cn2)n1 | 4300 | -3.4 | – |
| Cc1cc(OC2CN(S(C)(=O)=O)C2)cc(C(=O)Nc2nc(C)cs2)n1 | 504 | – | – |
| Cc1cc(OC2CS(=O)(=O)C2)cc(C(=O)Nc2nc(C)cs2)n1 | 392 | – | – |
| Cc1cc(O[C@@H]2CO[C@H](C)C2)cc(C(=O)Nc2nc(C)cs2)n1 | 112 | 2.1 | – |
| Cc1cc(OCC2CCO2)cc(C(=O)Nc2ccccn2)n1 (stereo unspecified) | 646 | 0.5 | – |
| CO[C@H](C)COc1cc(C)nc(C(=O)Nc2nc(C)cs2)c1 | 145 | – | Fu [3]: 0.07; Fu [5]: 0.09 |
| Cc1cc(O[C@@H]2CO[C@H](C)C2)cc(C(=O)Nc2ccc(F)cn2)n1 | 389 | 1.4 | – |
